Target: T1, Hormone-sensitive lipase (HSL) (Homo sapiens, UniProt Q05469)
T1 construct: made in house
T1 sequence (Q05469 1-775 isoform Q05469-2): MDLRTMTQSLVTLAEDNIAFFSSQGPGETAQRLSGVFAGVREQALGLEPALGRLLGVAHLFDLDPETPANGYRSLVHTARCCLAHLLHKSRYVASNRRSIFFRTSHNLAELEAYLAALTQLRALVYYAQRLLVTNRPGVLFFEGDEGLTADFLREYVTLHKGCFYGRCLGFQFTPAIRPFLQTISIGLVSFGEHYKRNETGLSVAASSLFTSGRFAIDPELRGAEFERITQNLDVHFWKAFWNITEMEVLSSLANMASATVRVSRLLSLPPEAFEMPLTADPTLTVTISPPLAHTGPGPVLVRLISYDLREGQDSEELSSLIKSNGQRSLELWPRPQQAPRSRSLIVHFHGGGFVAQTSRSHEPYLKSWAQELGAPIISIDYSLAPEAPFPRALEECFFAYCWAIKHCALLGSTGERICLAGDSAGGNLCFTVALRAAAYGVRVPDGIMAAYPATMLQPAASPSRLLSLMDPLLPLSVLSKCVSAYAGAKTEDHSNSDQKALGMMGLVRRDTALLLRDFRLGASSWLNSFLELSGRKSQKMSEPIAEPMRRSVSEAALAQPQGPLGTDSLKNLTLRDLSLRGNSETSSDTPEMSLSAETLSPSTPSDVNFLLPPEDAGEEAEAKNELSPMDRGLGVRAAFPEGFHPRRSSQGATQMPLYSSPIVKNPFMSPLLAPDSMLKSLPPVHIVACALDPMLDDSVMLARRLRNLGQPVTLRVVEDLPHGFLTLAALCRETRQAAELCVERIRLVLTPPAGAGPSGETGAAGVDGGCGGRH
Test: Assay 3190.1: percent inhibition of hormone sensitive lipase by compound at 10 μM (fluorochrome-labeled triacylglyceride substrate)
Format: biochemical
Conditions: 10 μM sample concentration; % activity relative to non-inhibited sample (no compound); 30 min pre-incubation at 25° C., 120 min at 37° C.; read-out: Test 3190.1 HSL_FL % ACTIVITY
Source text: Materials. The Hormone-sensitive lipase was provided by Dr. Cecilia Holm, from Lund University Sweden or produced and purified by Novo Nordisk (NN) using the reagents and protocols used by Dr. Holm. The substrates used are: ^3H-labeled triolein (TO) from Amersham, Buckinghamshire, U.K. cat No. TRA191; 5-20 Ci/mmol dissolved in toluene, triolein (Sigma, Cat. No. T-1740), fluorochrome-labeled triacylglyceride (cis-octadec-9-enoic acid 2-[12-(7-nitrobenzo[1,2,5]oxadiazol-4-ylamino)dodecanoyloxy]-1-cis-octadec-9-enoyloxymethyl-ethyl ester) prepared by Novo Nordisk (NN) by conventional methods, and 1,3-(di[^3H]-stearin), 2-(PEG-Biotin)glycerol prepared in collaboration with Amersham Pharmacia Biotech, UK and described in WO 01/073442. Phosphatidyl choline (PC) and phosphatidyl inositol (PI) are from Sigma (St Luis Mo. cat. Nos. P-3556 and P-5954 respectively). All other reagents are of commercial grade and obtained from various commercial sources.
3190.1: Assay for determination of percent inhibition of hormone sensitive lipase by compound at 10 μM sample concentration.
A lipid emulsion with fluorochrome-labeled triacylglyceride and phospholipid is used as substrate with a standard concentration of highly purified HSL (12 μg/mL initial concentration corresponding to 600 ng/mL final concentration). BSA is added as product acceptor. The transfer of the fluorochrome from the lipid phase to the water (BSA) phase changes the fluorescent properties of the fluorochrome. The changes can be monitored on a fluorimeter with an excitation wavelength of 450 nm and an emission wavelength of 545 nm.
Compound and HSL (20 μL compound, 10 μL enzyme and 70 μL PED-BSA buffer) is pre-incubated for 30 min at 25° C. before addition of substrate (100 μL). Amount of formed product is measured after 120 min incubation at 37° C.
Results are given as percent activity relative to a non-inhibited sample (no compound). 3190.2: Assay for determination of IC50 value for the inhibition of hormone sensitive lipase by compound. Standard concentrations of compound are 100 μM and 5-fold dilutions (initial concentration corresponding to 10 μM final concentration and 5-fold).

Compound | activity at 10 µM
CN(C(=O)Oc1ccc(CCN2C(=O)CC(C)(C)CC2=O)cn1)c1ccccc1 [Example 1, Methyl-phenyl-carbamic acid 5-[2-(4,4-dimethyl-2,6-dioxo-piperidin-1-yl)-ethyl]-pyridin-2-yl ester] | 0%
CN(C(=O)Oc1ccc(NCC(=O)OC(C)(C)C)cn1)c1ccccc1 [Example 2, [6-(Methyl-phenyl-carbamoyloxy)-pyridin-3-ylamino]-acetic acid tert-butyl ester] | 1%
CN(C(=O)Oc1ccc(N2C(=O)CNC2=S)cn1)c1ccccc1 [Example 5, Methyl-phenyl-carbamic acid 5-(5-oxo-2-thioxo-imidazolidin-1-yl)-pyridin-2-yl ester] | 9%
CCC1NC(=S)N(c2ccc(OC(=O)N(C)c3ccccc3)nc2)C1=O (stereo not drawn) [Example 8, Methyl-phenyl-carbamic acid 5-(4-ethyl-5-oxo-2-thioxo-imidazolidin-1-yl)-pyridin-2-yl ester] | 3%
CN(C(=O)Oc1ccc(NC(=S)NCC(C)(C)C)cn1)c1ccccc1 [Example 12, Methyl-phenyl-carbamic acid 5-[3-(2,2-dimethyl-propyl)-thioureido]-pyridin-2-yl ester] | 2%
CCCCNC(=S)Nc1ccc(OC(=O)N(C)c2ccccc2)nc1 [Example 16, Methyl-phenyl-carbamic acid 5-(3-butyl-thioureido)-pyridin-2-yl ester] | 1%
COc1cccc(C(=O)Nc2ccc(OC(=O)N(C)c3ccccc3)nc2)c1 [Example 21, Methyl-phenyl-carbamic acid 5-(3-methoxy-benzoylamino)-pyridin-2-yl ester] | 1%
CN(C(=O)Oc1ccc(NC(=O)c2cccc(C(F)(F)F)c2F)cn1)c1ccccc1 [Example 28, Methyl-phenyl-carbamic acid 5-(2-fluoro-3-trifluoromethyl-benzoylamino)-pyridin-2-yl ester] | 1%
CN(C)c1cccc(C(=O)Nc2ccc(OC(=O)N(C)c3ccccc3)nc2)c1 [Example 31, Methyl-phenyl-carbamic acid 5-(3-dimethylamino-benzoylamino)-pyridin-2-yl ester] | 3%
COc1ccccc1N(C)C(=O)Oc1ccc(N2C(=O)CC(C)(C)CC2=O)cn1 [Example 32, (2-Methoxy-phenyl)-methyl-carbamic acid 4,4-dimethyl-2,6-dioxo-3,4,5,6-tetrahydro-2H-[1,3′]bipyridinyl-6′-yl ester] | 6%
CN(C(=O)Oc1ccc(NC(=O)NC(C)(C)C)cn1)c1ccccc1 [Example 35, Methyl-phenyl-carbamic acid 5-(3-tert-butyl-ureido)-pyridin-2-yl ester] | 8%
CC1CCN(Cc2ccc(C(=O)Nc3ccc(OC(=O)N(C)c4ccccc4)nc3)cc2)CC1 [Example 41, Methyl-phenyl-carbamic acid 5-[4-(4-methyl-piperidin-1-ylmethyl)-benzoylamino]-pyridin-2-yl ester] | 3%
CC1CCCCN1Cc1ccc(C(=O)Nc2ccc(OC(=O)N(C)c3ccccc3)nc2)cc1 (stereo not drawn) [Example 43, Methyl-phenyl-carbamic acid 5-[4-(2-methyl-piperidin-1-ylmethyl)-benzoylamino]-pyridin-2-yl ester] | 7%
CN(C(=O)Oc1ccc(NC(=O)c2ccc(CN3CCCC3)cc2)cn1)c1ccccc1 [Example 47, Methyl-phenyl-carbamic acid 5-(4-pyrrolidin-1-ylmethyl-benzoylamino)-pyridin-2-yl ester] | 7%
C[C@@H]1CN(Cc2ccc(C(=O)Nc3ccc(OC(=O)N(C)c4ccccc4)nc3)cc2)C[C@H](C)O1 [Example 52, cis-Methyl-phenyl-carbamic acid 5-[4-(2,6-dimethyl-morpholin-4-ylmethyl)-benzoylamino]-pyridin-2-yl ester] | 4%
CN(C(=O)Oc1ccc(NC(=O)c2ccc(-n3ccnc3)cc2)cn1)c1ccccc1 [Example 57, Methyl-phenyl-carbamic acid 5-(4-imidazol-1-yl-benzoylamino)-pyridin-2-yl ester] | 17%
CCN(CC)c1ccc(C(=O)Nc2ccc(OC(=O)N(C)c3ccccc3)nc2)cc1 [Example 58, Methyl-phenyl-carbamic acid 5-(4-diethylamino-benzoylamino)-pyridin-2-yl ester] | 11%
CC1CCN(C(=S)Nc2ccc(OC(=O)N(C)c3ccccc3)nc2)CC1 [Example 63, Methyl-phenyl-carbamic acid 5-[(4-methyl-piperidine-1-carbothioyl)-amino]-pyridin-2-yl ester] | 2%
CN(C(=O)Oc1ccc(N2C(=O)CC(C)(C)CC2=O)cn1)c1ccc(Br)cc1 [Example 65, (4-Bromo-phenyl)-methyl-carbamic acid 4,4-dimethyl-2,6-dioxo-3,4,5,6-tetrahydro-2H-[1,3′]bipyridinyl-6′-yl ester] | 0%
COc1ccc(N(C)C(=O)Oc2ccc(N3C(=O)CC(C)(C)CC3=O)cn2)cc1 [Example 72, (4-Methoxy-phenyl)-methyl-carbamic acid 4,4-dimethyl-2,6-dioxo-3,4,5,6-tetrahydro-2H-[1,3′]bipyridinyl-6′-yl ester] | 2%
CN(C(=O)Oc1ccc(N2C(=O)CC(C)(C)CC2=O)cn1)c1ccc(CCO)cc1 [Example 77, [4-(2-Hydroxy-ethyl)-phenyl]-methyl-carbamic acid 4,4-dimethyl-2,6-dioxo-3,4,5,6-tetrahydro-2H-[1,3′]bipyridinyl-6′-yl ester] | 12%

From patent US20060160865A1, “Pyridinyl carbamates” (Novo Nordisk A/S, priority 2003, published 2006)
